How the values were obtained:
[1] = test system: IPOSS (Morningglory Spp.); test: Postemergence herbicidal evaluation; type: in vivo, Ipomoea Spp.
How it was run: (§1)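 Two-week-old seedlings sprayed with compound in 50/50 acetone/water plus 0.5% TWEEN 20, at about 0.0156 to 0.500 kg/ha, nozzle at 40 psi. Kept in greenhouse; rated visually 4-5 weeks after treatment on a 0-9 scale versus control, repeat tests averaged.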

ECHCG (Barnyardgrass) = test: Postemergence herbicidal evaluation; type: in vivo, Echinochloa crus-galli; conditions: postemergence
How it was run: as §1

[2] = test system: CHEAL (Lambsquarters, Common); test: Preemergence herbicidal evaluation; type: in vivo, Chenopodium album; conditions: rated 4-5 weeks after treatment
How it was run: (§2)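 Each species is sown separately in potting soil over roughly an inch of soil before any emergence. The soil surface then receives an aqueous acetone spray delivering about 0.0156 to 0.500 kg/ha of compound. After four to five weeks, injury is scored from 0 to 9 relative to a control.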

[3] = test system: IPOSS (Morningglory Spp.); test: Preemergence herbicidal evaluation; type: in vivo, Ipomoea Spp.; conditions: rated 4-5 weeks after treatment
Description: Results of herbicide evaluation are expressed on a rating scale (0-9). The scale is based upon a visual observation of plant stand, vigor, malformation, size, chlorosis and overall plant appearance as compared with a control.
The preemergence herbicidal activity of the test compounds of the present invention is exemplified by the following tests in which the seeds of a variety of monocotyledonous and dicotyledonous plants are separately mixed with potting soil and planted on top of approximately one inch of soil in separate pint cups. After planting, the cups are sprayed with the selected aqueous acetone solution containing test compound in sufficient quantity to provide the equivalent of about 0.0156 to 0.500 kg per hectare of test compound per cup. The treated cups are then placed on greenhouse benches, watered and cared for in accordance with conventional greenhouse procedures. From four to five weeks after treatment, the tests are terminated and each cup is examined and rated according to the rating system provided in Example 37.
The compounds evaluated are reported by compound number given in Example 37.

ORYSAT (Rice, Tebonnet) [4] = test: Preemergence herbicidal evaluation; type: in vivo, Oryza sativa, (L.) Tebonnet; conditions: rated 4-5 weeks after treatment
How it was run: as §2

[5] = test system: ECHORC (Watergrass (Calif.)); test: Preemergence weed control under flooded paddy conditions; type: in vivo, Echinochloa oryzoides; conditions: rated 3-4 weeks after treatment
How it was run: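 Ratings on a 0-9 visual scale cover stand, vigor, malformation, size, chlorosis and overall appearance relative to a control, taken three to four weeks post-treatment. Application was into flood water over freshly sown silt loam at roughly 0.0313 to 0.500 kg/ha.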

CYPSE (Flatsedge) = test: as above; type: in vivo, Cyperus serotinus; conditions: rated 3-4 weeks after treatment
How it was run: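 Seeds or propagules sown in top 0.5 cm of silt loam soil, flooded 1.5 to 3 cm above surface throughout. Compound in 50/50 v/v aqueous/acetone pipetted into flood water at about 0.0313 to 0.500 kg/ha. Visual 0-9 rating versus control after three to four weeks in greenhouse.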

MOOVA (Monochoria) = test: Postemergence weed control under flooded paddy conditions; type: in vivo, Monochoria vaginalis; conditions: postemergence weeds, 3-4 weeks after treatment
How it was run: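 Flood-water application, about 0.0313–0.500 kg/ha a.i. in aqueous/acetone 50/50 v/v; water depth 1.5–3 cm throughout. Weeds 3–5 cm, rice 1.5–2.5 leaf. Greenhouse; 0–9 visual rating vs control at 3–4 wk.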

ORYSAT (Rice, Tebonnet) [6] = test: Rice tolerance to post-transplant applications, flooded paddy conditions (Table III); type: in vivo, Oryza sativa, (L.) Tebonnet; conditions: in vivo
How it was run: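 Injury scored 0-9 by eye against untreated control, judging stand, vigor, malformation, size and chlorosis, three to four weeks after treatment. Compound in 50/50 aqueous/acetone, about 0.0313 to 0.500 kg/ha, was applied to paddy water (1.5 to 3 cm depth) three days after transplanting paired ten-day-old Tebonnet rice seedlings.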

ORYSAT (Rice, Tebonnet) [7] = test: Rice tolerance to post-transplant applications, flooded paddy conditions (Table IV); type: in vivo, Oryza sativa, (L.) Tebonnet; conditions: in vivo
How it was run: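 Post-transplant paddy test in greenhouse: a.i. about 0.0313 to 0.500 kg/ha applied into the flood water. Plants are rated 0-9 for overall appearance relative to control three to four weeks on.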

Structure (SMILES) | IPOSS herbicidal rating ([1]; rate 0.0157 kg/ha) | IPOSS herbicidal rating ([1]; rate 0.0313 kg/ha) | IPOSS herbicidal rating ([1]; rate 0.0625 kg/ha) | ECHCG herbicidal rating (ECHCG (Barnyardgrass); rate 0.0157 kg/ha) | ECHCG herbicidal rating (ECHCG (Barnyardgrass); rate 0.0313 kg/ha) | ECHCG herbicidal rating (ECHCG (Barnyardgrass); rate 0.0625 kg/ha) | ECHCG herbicidal rating (ECHCG (Barnyardgrass); rate 0.1250 kg/ha) | CHEAL preemergence herbicidal rating ([2]; rate 0.1250 kg/ha) | CHEAL preemergence herbicidal rating ([2]; rate 0.2500 kg/ha) | IPOSS preemergence herbicidal rating ([3]; rate 0.1250 kg/ha) | IPOSS preemergence herbicidal rating ([3]; rate 0.2500 kg/ha) | ORYSAT preemergence herbicidal rating (ORYSAT (Rice, Tebonnet) [4]; rate 0.1250 kg/ha) | ORYSAT preemergence herbicidal rating (ORYSAT (Rice, Tebonnet) [4]; rate 0.2500 kg/ha) | Herbicidal rating ECHORC ([5]; 0.0313 kg/ha) | Herbicidal rating ECHORC ([5]; 0.0625 kg/ha) | Herbicidal rating ECHORC ([5]; 0.1250 kg/ha) | Herbicidal rating ECHORC ([5]; 0.2500 kg/ha) | Herbicidal rating CYPSE (CYPSE (Flatsedge); 0.0313 kg/ha) | Herbicidal rating CYPSE (CYPSE (Flatsedge); 0.0625 kg/ha) | Herbicidal rating CYPSE (CYPSE (Flatsedge); 0.1250 kg/ha) | other results
CN1C(=O)CS/C1=N/c1cc(-n2c(=O)cc(C(F)(F)F)n(C)c2=O)c(F)cc1Cl [Compound 7] | 6.0 | 7.0 | 9.0 | 2.0 | 0.0 | 3.0 | 4.0 | 9.0 | 9.0 | 9.0 | 9.0 | 8.5 | 9.0 | 8.0 | 9.0 | 9.0 | 9.0 | 4.0 | 7.0 | 7.0 | CHEAL preemergence herbicidal rating ([2]; rate 0.0157 kg/ha): 9.0; CHEAL preemergence herbicidal rating ([2]; rate 0.0313 kg/ha): 9.0; CHEAL preemergence herbicidal rating ([2]; rate 0.0625 kg/ha): 9.0; IPOSS preemergence herbicidal rating ([3]; rate 0.0157 kg/ha): 9.0; IPOSS preemergence herbicidal rating ([3]; rate 0.0313 kg/ha): 9.0; IPOSS preemergence herbicidal rating ([3]; rate 0.0625 kg/ha): 9.0; ORYSAT preemergence herbicidal rating (ORYSAT (Rice, Tebonnet) [4]; rate 0.0157 kg/ha): 5.0; ORYSAT preemergence herbicidal rating (ORYSAT (Rice, Tebonnet) [4]; rate 0.0313 kg/ha): 7.5; ORYSAT preemergence herbicidal rating (ORYSAT (Rice, Tebonnet) [4]; rate 0.0625 kg/ha): 8.0; Herbicidal rating CYPSE (CYPSE (Flatsedge); 0.2500 kg/ha): 9.0; Herbicidal rating MOOVA (MOOVA (Monochoria); rate 0.0313 kg/ha): 9.0; Herbicidal rating MOOVA (MOOVA (Monochoria); rate 0.0625 kg/ha): 9.0; Herbicidal rating MOOVA (MOOVA (Monochoria); rate 0.1250 kg/ha): 9.0; Herbicidal rating MOOVA (MOOVA (Monochoria); rate 0.2500 kg/ha): 9.0
CCC1SC(=Nc2cc(N3C(=O)C4=C(CCCC4)C3=O)c(F)cc2Cl)N(C)C1=O (stereo not drawn) [Compound 6, N-{4-chloro-5-[(5-ethyl-3-methyl-4-oxo-2-thiazolidinylidene)amino]-2-fluorophenyl}-1-cyclohexene-1,2-dicarboximide] | 0.0 | 0.0 | 0.0 | 0.0 | 0.0 | 0.0 | 0.0 | 2.0 | 4.0 | 0.0 | 0.0 | 0.0 | 0.0 | 0.0 | 0.0 | 2.0 | 7.0 | 0.0 | 0.0 | 0.0 | IPOSS herbicidal rating ([1]; rate 0.1250 kg/ha): 2.0; IPOSS herbicidal rating ([1]; rate 0.2500 kg/ha): 4.0; IPOSS herbicidal rating ([1]; rate 0.5000 kg/ha): 9.0; ECHCG herbicidal rating (ECHCG (Barnyardgrass); rate 0.2500 kg/ha): 1.0; ECHCG herbicidal rating (ECHCG (Barnyardgrass); rate 0.5000 kg/ha): 2.0; CHEAL preemergence herbicidal rating ([2]; rate 0.5000 kg/ha): 9.0; IPOSS preemergence herbicidal rating ([3]; rate 0.5000 kg/ha): 0.0; ORYSAT preemergence herbicidal rating (ORYSAT (Rice, Tebonnet) [4]; rate 0.5000 kg/ha): 0.0; Herbicidal rating ECHORC ([5]; 0.5000 kg/ha): 7.0; Herbicidal rating CYPSE (CYPSE (Flatsedge); 0.2500 kg/ha): 0.0; Herbicidal rating CYPSE (CYPSE (Flatsedge); 0.5000 kg/ha): 0.0; Herbicidal rating ORYSAT (rice tolerance) (ORYSAT (Rice, Tebonnet) [6]): 0.0; Herbicidal rating MOOVA (MOOVA (Monochoria); rate 0.0313 kg/ha): 1.0; Herbicidal rating MOOVA (MOOVA (Monochoria); rate 0.0625 kg/ha): 4.0; Herbicidal rating MOOVA (MOOVA (Monochoria); rate 0.1250 kg/ha): 4.0; Herbicidal rating MOOVA (MOOVA (Monochoria); rate 0.2500 kg/ha): 4.5; Herbicidal rating MOOVA (MOOVA (Monochoria); rate 0.5000 kg/ha): 4.5; Herbicidal rating ORYSAT (rice tolerance) (ORYSAT (Rice, Tebonnet) [7]): 0.0

Reference: patent US20020137929A1, “1 - (3-heterocyclylphenyl) isothiourea, -isourea, -guanidine and -amidine herbicidal agents” (Intellectual Property Department, BASF Aktiengesellschaft, priority 1998, published 2002)
